Test results: patent publication US20010053758A1, “Methods and compositions for the treatment and prevention of lung disease” (priority 1999, published 2001)

Legend:
[1] = tested on: alveolus formation (septation) in rat lung; assay: Alveolus formation in newborn rat pups injected intraperitoneally daily (lung histology and morphometry); format: in vivo, Sprague-Dawley rat
From the text: The expression of the RARβ receptor has been associated in certain cases with diminished cell replication. Following the initial injection, the rat pups were subjected to identical daily injections until day 13. A set of rat pups were sacrificed at day 4 and at […] by anesthesia with phenobarbitol sodium and scission of the abdominal aorta. Following sacrifice, rat lungs were fixed and histological sections prepared essentially as described in Massaro et al., Am. J. Physiol. 270: L305 (1996), incorporated by reference herein. The histological sections were viewed and photographs taken under light microscopy.
The differences in alveolar dimensions between treated and untreated rat pups were so pronounced, they were quantitated by measuring the distance between alveolar walls (Lm) and the surface-to-volume ratio (S/V) of the gas-exchange structures (septa). The Lm in cottonseed oil-treated rats was 80 μm±2.8 μm (N=4) compared to 110 μm±7.3 μm (N=3) in RARβ agonist-treated rats (N=3; P=0.03 by Mann Whitney nonparametric analysis). The S/V was 504 μm^−1±18 μm^−1 (N=4) in cottonseed oil-treated rats compared to 365 μm^−1±23 μm^−1 (N=3) in RARβ agonist-treated rats (P=0.03).

RARβ = biological target: T1, RARβ (Homo sapiens, UniProt P10826); assay: RAR receptor activity as stated for the retinoid ligand; details: ligand specific to RAR receptors and not to RXR receptors
T1 sequence (P10826 1-455): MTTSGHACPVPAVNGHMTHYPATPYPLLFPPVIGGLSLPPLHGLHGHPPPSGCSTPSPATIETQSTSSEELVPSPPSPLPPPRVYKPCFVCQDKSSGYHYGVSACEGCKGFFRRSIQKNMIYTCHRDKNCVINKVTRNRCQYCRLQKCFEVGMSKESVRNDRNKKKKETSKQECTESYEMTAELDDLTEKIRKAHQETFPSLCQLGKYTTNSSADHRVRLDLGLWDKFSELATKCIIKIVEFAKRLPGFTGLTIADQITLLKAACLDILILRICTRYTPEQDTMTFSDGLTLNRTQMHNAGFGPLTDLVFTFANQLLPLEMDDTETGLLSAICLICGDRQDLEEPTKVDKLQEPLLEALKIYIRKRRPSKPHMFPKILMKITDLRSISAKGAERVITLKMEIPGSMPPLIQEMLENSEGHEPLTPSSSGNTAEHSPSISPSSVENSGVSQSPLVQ
From the text: Likewise, methods of screening candidate compounds for Specific RAR modulating activity is routine and well-known in the art. For example, U.S. Pat. No. 5,455,265, incorporated by reference herein, describes a chimeric receptor transactivation assay which tests for RAR-agonist activity in the RAR-α, RAR-β, RAR-γ, RXR-α receptor subtypes. Briefly, this assay employs chimeric proteins containing an RAR ligand-binding domain and a heterologous polypeptide segment having the ability to bind to a response element (RE), in turn facilitating transcription of a specific, measurable target gene, such as chloramphenicol acetyltransferase (CAT). Only an agonist of the given RAR isotype whose ligand binding domain comprises part of the chimeric protein will permit the activation of CAT transcription and expression. […] For example, those ligands able to stimulate CAT synthesis when used in combination with chimeric proteins having RAR binding domains, but not those having RXR ligand binding domains, will be RAR specific agonists.

[2] = tested on: elastase-induced destruction of alveolar walls; details: elastase-treated rats; cited from earlier work
[3] = tested on: alveolus formation in newborn rat lung; details: newborn rats; cited from earlier work

receptor activity (RARβ)	SMILES	histological sections: alveolar size and degree of septation ([1]; age 14 days, treated daily from age 3 through 13 days, versus cottonseed oil alone (FIGS. 1A and 1B))	distance between alveolar walls (Lm) ([1]; rat pups, 500 micrograms per kg i.p. daily from age 3 to 13 days, age 14 days, N=3, cottonseed oil control 80 μm±2.8 μm, P=0.03)	surface-to-volume ratio (S/V) of the gas-exchange structures ([1]; rat pups, 500 micrograms per kg i.p. daily from age 3 to 13 days, N=3, cottonseed oil control 504 μm^−1±18 μm^−1, P=0.03)	surface area ([1]; rat pups, 500 micrograms per kg i.p. daily from age 3 to 13 days, cottonseed oil control 634 cm^2 ±9 cm^2, P=0.03)	Lung volume ([1]; treated rats versus cottonseed oil-treated rats)	effect on elastase-induced alveolar wall destruction [2]	effect on number of alveoli [3]
RARβ agonist activity	CC1(C)CC=C(c2cccs2)c2cc(C#Cc3ccc(C(=O)O)cc3)ccc21 [AGN 193174]	alveoli were larger, and the degree of sepatation less	110 μm	365 μm^−1	492 cm^2	the same in both rat groups	–	–
–	CC1=C(/C=C/C(C)=C/C=C/C(C)=C/C(=O)O)C(C)(C)CCC1 [all-trans-retinoic acid]	–	–	–	–	–	appeared to reverse this destruction	induced the formation of an increased number of alveoli in rats without enlarging the lung
